# Legend:
# [1] = target: Adenosine A2a (ADORA2A) receptor (Homo sapiens (Human), UniProt P29274); assay: ADORA2A Receptor Binding Assay; conditions: radioligand binding, membrane stock
# Outline: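 Test compounds incubated with A2a receptor membranes and a ³H-labelled radioligand for 2 hours at room temperature, then filtered through PEI-presoaked GF/C plates and washed. Filter-bound ³H counted by scintillation; % inhibition calculated from background-subtracted signal relative to high control.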
# [2] = target: Adenosine A2B (ADORA2B) receptor (Homo sapiens (Human), UniProt P29275); assay: ADORA2B Receptor Binding Assay; conditions: radioligand binding, membrane stock
# Outline: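 Radioligand competition binding on human A2B receptor membranes, 1 h at room temperature, then filtration through BSA-presoaked GF/C filters and ³H counting by scintillation. Inhibition expressed as % of high control after background subtraction.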
# Chain of Adenosine A2B (ADORA2B) receptor (P29275 whole entry): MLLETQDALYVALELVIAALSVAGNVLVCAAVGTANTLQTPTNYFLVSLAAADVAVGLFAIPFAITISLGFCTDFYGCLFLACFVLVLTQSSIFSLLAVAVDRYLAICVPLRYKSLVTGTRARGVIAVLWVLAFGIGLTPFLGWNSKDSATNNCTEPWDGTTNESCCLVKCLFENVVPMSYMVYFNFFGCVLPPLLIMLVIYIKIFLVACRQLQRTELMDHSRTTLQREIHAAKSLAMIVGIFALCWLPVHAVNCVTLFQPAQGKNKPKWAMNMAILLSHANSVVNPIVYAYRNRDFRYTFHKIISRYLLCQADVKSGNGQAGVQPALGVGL
# Chain of Adenosine A2a (ADORA2A) receptor (P29274 whole entry): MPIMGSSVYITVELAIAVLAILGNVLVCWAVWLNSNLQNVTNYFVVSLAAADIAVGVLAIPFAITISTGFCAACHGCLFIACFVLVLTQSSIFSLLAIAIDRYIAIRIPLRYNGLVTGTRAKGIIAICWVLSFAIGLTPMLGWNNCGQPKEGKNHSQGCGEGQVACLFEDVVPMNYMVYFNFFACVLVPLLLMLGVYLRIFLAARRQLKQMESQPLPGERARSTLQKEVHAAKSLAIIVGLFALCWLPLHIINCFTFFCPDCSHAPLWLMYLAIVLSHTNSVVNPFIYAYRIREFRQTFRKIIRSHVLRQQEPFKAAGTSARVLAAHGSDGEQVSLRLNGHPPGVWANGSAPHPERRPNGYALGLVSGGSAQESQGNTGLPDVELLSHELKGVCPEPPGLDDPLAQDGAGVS
IC50 [1] [nM],IC50 [2] [nM],Structure (SMILES)
10 to 100,100 to 1000,"Cc1nc2cc(N)nc(-c3ccc(F)c(F)c3)n2n1 [Compound 130, 5-(3,4-difluorophenyl)-2-methyl-[1,2,4]triazolo[1,5-c]pyrimidin-7-amine]"
10 to 100,10 to 100,"Cc1nc2cc(NC(N)=O)nc(-c3ccco3)n2n1 [Compound 152, [5-(furan-2-yl)-2-methyl-[1,2,4]triazolo[1,5-c]pyrimidin-7-yl]urea]"
10 to 100,100 to 1000,"Cc1nc2cc(NC(=O)C(F)(F)F)nc(-c3ccco3)n2n1 [Compound 143, 2,2,2-trifluoro-N-[5-(furan-2-yl)-2-methyl-[1,2,4]triazolo[1,5-c]pyrimidin-7-yl]acetamide]"
< 10,10 to 100,"Cc1nc2c(F)c(NC(=O)C3CC3)nc(-c3ccc(C)o3)n2n1 [Compound 39, N-[8-fluoro-2-methyl-5-(5-methylfuran-2-yl)-[1,2,4]triazolo[1,5-c]pyrimidin-7-yl]cyclopropanecarboxamide]"
10 to 100,100 to 1000,"CC(=O)Nc1cc2nc(C)nn2c(-c2cccc(F)c2)n1 [Compound 132, N-[5-(3-fluorophenyl)-2-methyl-[1,2,4]triazolo[1,5-c]pyrimidin-7-yl]acetamide]"
10 to 100,10 to 100,"CNC(=O)Nc1cn2cc(C)nc2c(-c2ccco2)n1 [Compound 217, 1-[8-(furan-2-yl)-2-methylimidazo[1,2-a]pyrazin-6-yl]-3-methylurea]"
> 1000,> 1000,"Cc1nc2cc(NC(=O)C3CC3)nc(-c3ccc(S(=O)(=O)N(C)C)cc3)n2n1 [Compound 116, N-[5-[4-(dimethylsulfamoyl)phenyl]-2-methyl-[1,2,4]triazolo[1,5-c]pyrimidin-7-yl]cyclopropanecarboxamide]"
< 10,10 to 100,"Cc1nc2cc(NC(=O)C3CNC3)nc(-c3ccc(C)o3)n2n1 [Compound 14, N-[2-methyl-5-(5-methylfuran-2-yl)-[1,2,4]triazolo[1,5-c]pyrimidin-7-yl]azetidine-3-carboxamide]"
< 10,10 to 100,"Cc1nc2c(F)c(N)nc(-c3ccc(C)o3)n2n1 [Compound 30, 8-fluoro-2-methyl-5-(5-methylfuran-2-yl)-[1,2,4]triazolo[1,5-c]pyrimidin-7-amine]"
10 to 100,10 to 100,"CCNC(=O)Nc1cc2nc(C)nn2c(-c2ccco2)n1 [Compound 155, 1-ethyl-3-[5-(furan-2-yl)-2-methyl-[1,2,4]triazolo[1,5-c]pyrimidin-7-yl]urea]"
100 to 1000,> 1000,"CC(=O)Nc1cc2nc(C3CNC3)nn2c(-c2ccco2)n1 [Compound 122, N-[2-(azetidin-3-yl)-5-(furan-2-yl)-[1,2,4]triazolo[1,5-c]pyrimidin-7-yl]acetamide]"
100 to 1000,100 to 1000,"Cc1ccc(-c2nc(N)c(Cl)n3cc(C)nc23)cc1 [Compound 214, 5-chloro-2-methyl-8-(4-methylphenyl)imidazo[1,2-a]pyrazin-6-amine]"
10 to 100,10 to 100,"Cc1ccc(-c2nc(NC(=O)C3CC3)cn3ccnc23)o1 [Compound 192, N-[8-(5-methylfuran-2-yl)imidazo[1,2-a]pyrazin-6-yl]cyclopropanecarboxamide]"
< 10,< 10,"Cc1nc2c3cc(C(C)(C)O)[nH]c3nc(-c3ccc(C)o3)n2n1 [Compound 134, 2-[4-methyl-7-(5-methylfuran-2-yl)-3,5,6,8,10-pentazatricyclo[7.3.0.0^2,6]dodeca-1(9),2,4,7,11-pentaen-11-yl]propan-2-ol]"
100 to 1000,100 to 1000,"Cc1cn2cc(N)nc(-c3ccc(C)o3)c2n1 [Compound 200, 2-methyl-8-(5-methylfuran-2-yl)imidazo[1,2-a]pyrazin-6-amine]"
< 10,100 to 1000,"Cc1nc2cc(NC(=O)C3CC3)nc(-c3ccc(C(C)C)o3)n2n1 [Compound 55, N-[2-methyl-5-(5-propan-2-ylfuran-2-yl)-[1,2,4]triazolo[1,5-c]pyrimidin-7-yl]cyclopropanecarboxamide]"
> 1000,> 1000,"Cc1ccc(-c2nc(N)cn3c(C)cnc23)o1 [Compound 198, 3-methyl-8-(5-methylfuran-2-yl)imidazo[1,2-a]pyrazin-6-amine]"
100 to 1000,100 to 1000,"Cc1nc2c3nc(C(F)(F)F)[nH]c3nc(-c3ccc(C)o3)n2n1 [Compound 161, 8-methyl-5-(5-methylfuran-2-yl)-2-(trifluoromethyl)-3H-[1,2,4]triazolo[5,1-f]purine]"
< 10,100 to 1000,"CCc1nc2cc(N)nc(-c3ccc(C)o3)n2n1 [Compound 7, 2-ethyl-5-(5-methylfuran-2-yl)-[1,2,4]triazolo[1,5-c]pyrimidin-7-amine]"

IC50 [1] [nM],IC50 [2] [nM],Structure (SMILES)
< 10,10 to 100,"Cc1cc2c(nc(-c3ccc(C)o3)n3nc(C(C)C)nc23)[nH]1 [Compound 75, 11-methyl-7-(5-methylfuran-2-yl)-4-propan-2-yl-3,5,6,8,10-pentazatricyclo[7.3.0.0^2,6]dodeca-1(9),2,4,7,11-pentaene]"
10 to 100,100 to 1000,"Cc1ccc(-c2nc3c(c4nc(C(C)C)nn24)C(C)(C)CN3)o1 [Compound 36, 12,12-dimethyl-7-(5-methylfuran-2-yl)-4-propan-2-yl-3,5,6,8,10-pentazatricyclo[7.3.0.0^2,6]dodeca-1(9),2,4,7-tetraene]"
< 10,< 10,"Cc1nc2cc(NC(=O)C3CC3)nc(-c3ccc(Br)o3)n2n1 [Compound 52, N-[5-(5-bromofuran-2-yl)-2-methyl-[1,2,4]triazolo[1,5-c]pyrimidin-7-yl]cyclopropanecarboxamide]"
10 to 100,100 to 1000,"CC(=O)Nc1cc2nc(C(C)C)nn2c(-c2cnco2)n1 [Compound 49, N-[5-(1,3-oxazol-5-yl)-2-propan-2-yl-[1,2,4]triazolo[1,5-c]pyrimidin-7-yl]acetamide]"
< 10,< 10,"Cc1ccc(-c2nc(NC(=O)C3CC3)cc3nc(C(F)(F)F)nn23)o1 [Compound 20, N-[5-(5-methylfuran-2-yl)-2-(trifluoromethyl)-[1,2,4]triazolo[1,5-c]pyrimidin-7-yl]cyclopropanecarboxamide]"
> 1000,> 1000,"Cc1nc2cc(NC(=O)OC(C)(C)C)nc(-c3ccc(S(=O)(=O)N(C)C)cc3)n2n1 [Compound 118, tert-butyl N-[5-[4-(dimethylsulfamoyl)phenyl]-2-methyl-[1,2,4]triazolo[1,5-c]pyrimidin-7-yl]carbamate]"
10 to 100,> 1000,"Cc1nc2c(Cl)c(N)nc(-c3ccccn3)n2n1 [Compound 74, 8-chloro-2-methyl-5-pyridin-2-yl-[1,2,4]triazolo[1,5-c]pyrimidin-7-amine]"
10 to 100,100 to 1000,"Cc1nc2cc(N)nc(-c3cccc(F)c3)n2n1 [Compound 142, 5-(3-fluorophenyl)-2-methyl-[1,2,4]triazolo[1,5-c]pyrimidin-7-amine]"
< 10,10 to 100,"CC(=O)Nc1cc2nc(C)nn2c(-c2ccco2)n1 [Compound 37, N-[5-(furan-2-yl)-2-methyl-[1,2,4]triazolo[1,5-c]pyrimidin-7-yl]acetamide]"
< 10,10 to 100,"Cc1nc2c(Cl)c(N)nc(-c3cccc(F)c3)n2n1 [Compound 146, 8-chloro-5-(3-fluorophenyl)-2-methyl-[1,2,4]triazolo[1,5-c]pyrimidin-7-amine]"
< 10,< 10,"CC(=O)Nc1cc2nc(C)nn2c(-c2ccc(C)o2)n1 [Compound 25, N-[2-methyl-5-(5-methylfuran-2-yl)-[1,2,4]triazolo[1,5-c]pyrimidin-7-yl]acetamide]"
< 10,10 to 100,"CC(=O)Nc1cc2nc(C3CC3)nn2c(-c2ccc(C)o2)n1 [Compound 61, N-[2-cyclopropyl-5-(5-methylfuran-2-yl)-[1,2,4]triazolo[1,5-c]pyrimidin-7-yl]acetamide]"
< 10,> 1000,"Cc1nc2cc(NC(=O)C(C)(C)C)nc(-c3ccc(C)o3)n2n1 [Compound 6, 2,2-dimethyl-N-[2-methyl-5-(5-methylfuran-2-yl)-[1,2,4]triazolo[1,5-c]pyrimidin-7-yl]propanamide]"
10 to 100,100 to 1000,"Cc1nc2c(Cl)c(N)nc(-c3ccc(F)c(F)c3)n2n1 [Compound 141, 8-chloro-5-(3,4-difluorophenyl)-2-methyl-[1,2,4]triazolo[1,5-c]pyrimidin-7-amine]"
< 10,10 to 100,"CC(=O)Nc1cn2cc(C)nc2c(-c2ccc(C)o2)n1 [Compound 205, N-[2-methyl-8-(5-methylfuran-2-yl)imidazo[1,2-a]pyrazin-6-yl]acetamide]"
10 to 100,10 to 100,"CC(=O)Nc1cn2cc(C)nc2c(-c2ccco2)n1 [Compound 211, N-[8-(furan-2-yl)-2-methylimidazo[1,2-a]pyrazin-6-yl]acetamide]"
> 1000,> 1000,"CC(=O)Nc1cc2nc(C)nn2c(-c2cnn(C)c2)n1 [Compound 71, N-[2-methyl-5-(1-methylpyrazol-4-yl)-[1,2,4]triazolo[1,5-c]pyrimidin-7-yl]acetamide]"
< 10,10 to 100,"Cc1ccc(-c2nc(NC(=O)C3CC3)cc3nc(C4CCCC4)nn23)o1 [Compound 66, N-[2-cyclopentyl-5-(5-methylfuran-2-yl)-[1,2,4]triazolo[1,5-c]pyrimidin-7-yl]cyclopropanecarboxamide]"
< 10,10 to 100,"Cc1nc2cc(NC(=O)C3CCC3)nc(-c3ccc(C)o3)n2n1 [Compound 10, N-[2-methyl-5-(5-methylfuran-2-yl)-[1,2,4]triazolo[1,5-c]pyrimidin-7-yl]cyclobutanecarboxamide]"

# Reference: patent US11718622B2, “Heterocyclic adenosine receptor antagonists” (Exelixis, Inc., priority 2020, dated 2023)
